Legend:
[1] = system: Dermatophagoides farinae (DF)-specific IgE; assay: Serum total DF-specific IgE by ELISA in atopic dermatitis mouse model; type: in vivo
Procedure: (§1) Then, in order to check changes in skin-specific T cells in each animal, single suspensions were prepared using the spleen, skin, and lymph nodes, and T-cells were stained using anti-CD3, anti-CD4, anti-CD8, and anti-CD45 antibodies. Flow cytometry was performed on skin-specific T cells using anti-CD69 and anti-CD103 antibodies, thereby observing the changes in number and distribution of skin-specific T cells by the application of the drug.
Blood was collected from the mouse heart, and then serum total DF-specific IgE (ng/mL) (A450) was measured in a 96-well plate (Corning Inc., Corning, NY, USA) using the ELISA MAX™ Delux Set (BioLegend, San Diego, CA, USA) kit.
(§2) Blood was collected from the mouse heart and then centrifuged at 2,500 rpm for 15 minutes, and the obtained serum was used in the experiment. Then, total IgE was measured using the ELISA MAX™ Delux Set (BioLegend, San Diego, CA, USA) kit. Dermatophagoides farinae (DF)-specific IgE was measured by ELISA using a slight modification of the previously reported method. Briefly, 100 μL of 20 μg/mL DfE in 50 mmol/L carbonate buffer (pH 9.6, Sigma, St. Louis, MO, USA) per well was plated in a 96-well microtiter plate (Corning Inc., Corning)., NY, USA) and incubated overnight at 4° C. […] The absorbance was measured at 450 nm with a microplate reader (TECAN, Salzburg, Austria).

skin-specific T cells [2] = assay: FACS of skin-specific T cells in human skin with atopic dermatitis lesions; type: cell-based; settings: skin immune cells and skin lesions of atopic dermatitis patients, 50 μM and 100 μM, FIG. 13
Procedure: To verify the effect of the candidate drug on skin-specific T cells in human skin tissue, a single suspension was prepared using the skin from an atopic dermatitis patient. T cells were stained using anti-CD3, anti-CD4, anti-CD8 and anti-CD45 antibodies, and flow cytometry was performed on skin-specific T cells using anti-CD69 and anti-CD103 antibodies, which are skin TRM markers, thereby observing the changes in number and distribution of skin-specific T cells by the application of the drug.

[3] = system: NC/Nga mice with induced atopic dermatitis; assay: H&E staining of skin of NC/Nga mice (eosinophil count, epidermal thickness); type: in vivo, mouse
Procedure: as §1
In atopic dermatitis, the eosinophil count is observed to be characteristically high, making it a representative biological indicator that can explain the immunological mechanism of atopic dermatitis. Based on this fact, hematoxylin and eosin (H&E) staining in NC/Nga mice was performed. […] In addition, when atopic dermatitis occurs, the skin thickens due to an excessive inflammatory response.

[4] = system: T cells in skin-draining lymph nodes; assay: FACS of T cell fractions in skin-draining lymph nodes of atopic dermatitis mouse model; type: in vivo
Procedure: as §1

[5] = system: cells isolated from normal skin tissue; assay: Toxicity assay using CCK-8 reagent (cell viability); type: cell-based; settings: for cell viability: cells from normal skin tissue, overnight, CCK-8
Procedure: Thereafter, 10 μL of Cell Counting Kit-8 reagent (Dojindo Lot. PR863) was added to each well of the 96-well plate, and after 2 hours, the safety and toxicity of the drug to the normal skin tissue were evaluated by measuring the absorbance at […].

skin-specific T cells [6] = assay: FACS of T cell fractions in skin of atopic dermatitis mouse model; type: in vivo
Procedure: as §1

T cells in the spleen = assay: FACS of T cell fractions in spleen of atopic dermatitis mouse model; type: in vivo
Procedure: as §1

serum total IgE = assay: Serum total IgE by ELISA in atopic dermatitis mouse model; type: in vivo
Procedure: as §1
as §2, with “C. Each well was blocked with 3% skim milk in PBS (PBST) containing 0.05% Tween 20 for 1 hour at 37° C. After washing three times with PBST, each well was incubated with a serum sample (diluted to 1:20 [V/V] in 1% BSA) overnight at 4° C.” for “C.”

[7] = 100 μM, compared to 0.1% dexamethasone

idelalisib
total DF-specific IgE level ([1]; 50 μM and 100 μM, ELISA, FIG. 8): reduced the level of total DF-specific IgE in a dose-dependent manner | total DF-specific IgE level compared to positive control [1, 7]: significantly decreased even compared to that in the 0.1% dexamethasone group | proportion of skin-specific T cells (skin-specific T cells [2]): significantly decreased in both the 50 μM and 100 μM idelalisib groups in a dose-dependent manner | epidermal thickness ([3]; FIG. 9B): decreased as the concentration of idelalisib increased | eosinophil count ([3]; FIG. 9C): decreased depending on the idelalisib concentration | proportion of CD3+ T cells in skin-draining lymph nodes ([4]; 100 μM, FIG. 10A): lowest proportion of CD3+ T cells | fraction of CD3+ CD4+ CD103+ T cells in skin-draining lymph nodes ([4]; 100 μM, FIG. 10B): statistically significantly lowest | fraction of T cells expressing CD69 among CD3+ CD4+ T cells in skin-draining lymph nodes ([4]; FIG. 10B): tended to decrease | cell viability ([5]; 50 μM): ≥ 90% | cell viability ([5]; 100 μM): ≥ 90% | toxicity in normal skin tissue ([5]; CCK-8, FIG. 4): no significant toxicity | proportions of CD3+ and CD4+ skin-specific T cells in the skin (skin-specific T cells [6]; 50 μM and 100 μM, FIG. 12): significantly decreased in both the 50 μM and 100 μM idelalisib groups in a dose-dependent manner | CD69+ T cells and CD103+ T cells in the skin tissues (skin-specific T cells [6]; FIG. 12): statistically significantly decreased | proportions of skin-specific T cells compared to positive control (skin-specific T cells [6]; skin, compared to 0.1% dexamethasone): significantly decreased even compared to that in the 0.1% dexamethasone-treated group | CD69+ T cells and CD103+ T cells in the spleen (T cells in the spleen; FIG. 11): decreased statistically significantly | proportion of CD3+ and CD4+ T cells in the spleen (T cells in the spleen; FIG. 11): decreased in a dose-dependent manner | CD69+ T cells and CD103+ T cells compared to positive control (T cells in the spleen; spleen, compared to 0.1% dexamethasone): significantly decreased in the idelalisib-treated group compared to the 0.1% dexamethasone group | serum total IgE level (serum total IgE; 50 μM and 100 μM, ELISA, FIG. 7): decreased the total IgE level in a dose-dependent manner | decrease in serum total IgE level compared to positive control (serum total IgE; [7]): significantly greater

— patent publication US20240325400A1, “Composition Comprising Skin-Specific T Cell Inhibitor as Active Ingredient for Prevention or Treatment of Atopic Dermatitis” (INDUSTRY-ACADEMIC COOPERATION FOUNDATION, YONSEI UNIVERSITY, priority 2021, published 2024)
